What is called Ki is a measure of affinity in units of concentration, obtained from inhibition or displacement. The low end stands for tighter binding, the high end for weaker binding.

In experiment [1] the test system is Mus musculus. As to the kind of experiment: Inhibition of G1-induced GPR30-mediated epithelial uterine cell proliferation in sc dosed ovariectomized C57B16 mouse. The experiment is classed as functional, organism-based. The conditions noted are these: Uterine epithelium.
For experiment [2], the system named is Mus musculus. Briefly: Effect on uterine weight in ovariectomized C57B16 mouse at 2.4 to 27 nM, sc. The experiment is classed as functional, organism-based. The conditions noted are these: Uterus.
In experiment [3] the test system is Mus musculus. Briefly: Inhibition of estrogen-induced GPR30-mediated epithelial uterine cell proliferation in sc dosed ovariectomized C57B16 mouse. In kind it is functional, Uterine epithelium.
For experiment [4], the target named is T1, Estrogen receptor (Homo sapiens) (UniProt P03372).
T1 sequence (whole entry): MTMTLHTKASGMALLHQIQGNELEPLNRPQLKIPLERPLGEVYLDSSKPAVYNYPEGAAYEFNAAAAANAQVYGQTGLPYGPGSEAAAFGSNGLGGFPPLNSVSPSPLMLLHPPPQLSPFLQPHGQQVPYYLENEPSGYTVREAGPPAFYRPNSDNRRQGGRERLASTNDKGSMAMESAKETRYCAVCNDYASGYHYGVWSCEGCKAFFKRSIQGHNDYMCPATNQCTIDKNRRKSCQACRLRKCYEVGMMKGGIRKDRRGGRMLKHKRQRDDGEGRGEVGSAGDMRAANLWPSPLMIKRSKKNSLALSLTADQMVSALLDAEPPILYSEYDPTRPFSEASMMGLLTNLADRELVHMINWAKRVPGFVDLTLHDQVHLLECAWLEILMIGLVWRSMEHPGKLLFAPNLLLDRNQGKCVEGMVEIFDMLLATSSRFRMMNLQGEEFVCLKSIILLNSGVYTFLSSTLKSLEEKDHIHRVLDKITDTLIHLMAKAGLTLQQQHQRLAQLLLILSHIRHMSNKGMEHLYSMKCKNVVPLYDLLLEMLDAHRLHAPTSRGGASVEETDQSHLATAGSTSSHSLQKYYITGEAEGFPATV
Briefly: Antagonist activity in ERalpha-transfected COS7 cells assessed as inhibition of E2-mediated PI(3)K activation. In kind it is functional, cell-based. The conditions noted are these: COS-7.

Experiment [5] has as its target T2, Estrogen receptor beta (Homo sapiens, UniProt Q92731). As to the kind of experiment: Binding affinity to ERbeta receptor in COS7 cells by competitive binding assay. In kind it is cell-based, COS-7.
In experiment [6] the test system is Mus musculus. Briefly: Inhibition of GPR30-mediated epithelial uterine cell proliferation in ovariectomized C57B16 mouse at 2.4 to 27 nM, sc relative to control. The experiment is classed as functional, organism-based. The conditions noted are these: Uterine epithelium.
Experiment [7] deals with T2, Estrogen receptor beta. Briefly: Antagonist activity in ERbeta-transfected COS7 cells assessed as inhibition of E2-mediated PI(3)K activation. The conditions noted are these: COS-7. The experiment is classed as functional, cell-based.
The subject of experiment [8] is Mus musculus. As to the kind of experiment: Effect on uterine weight in ovariectomized C57B16 mouse at 0.1 to 2.4 nM, sc. In kind it is functional, organism-based. The conditions noted are these: Uterus.

Calls of active or inactive are those of the source. The calls are words filed in the database; no cut-off is given here. Bounds are passed on as bounds.

T2 sequence (Q92731 whole entry): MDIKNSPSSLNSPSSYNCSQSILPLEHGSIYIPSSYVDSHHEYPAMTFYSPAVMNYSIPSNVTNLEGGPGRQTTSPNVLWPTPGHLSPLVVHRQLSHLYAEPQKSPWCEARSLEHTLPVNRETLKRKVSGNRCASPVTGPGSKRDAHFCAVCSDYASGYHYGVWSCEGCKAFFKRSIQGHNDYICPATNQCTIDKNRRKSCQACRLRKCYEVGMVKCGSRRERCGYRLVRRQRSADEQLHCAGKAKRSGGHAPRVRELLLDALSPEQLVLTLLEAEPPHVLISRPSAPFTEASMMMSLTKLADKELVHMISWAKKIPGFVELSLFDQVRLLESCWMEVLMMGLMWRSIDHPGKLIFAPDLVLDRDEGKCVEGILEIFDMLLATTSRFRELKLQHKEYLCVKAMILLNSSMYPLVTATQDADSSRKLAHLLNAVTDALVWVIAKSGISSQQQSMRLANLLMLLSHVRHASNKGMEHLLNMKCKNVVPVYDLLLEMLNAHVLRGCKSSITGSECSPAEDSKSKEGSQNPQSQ

Regarding `Brc1cc2c(cc1[C@@H]1Nc3ccccc3[C@@H]3C=CC[C@@H]31)OCO2`, in the experiment with Mus musculus [1], the inhibition entry is “Active; Dose-dependent effect”. In addition, the outcome (with Mus musculus [2]; in experiment [4]; in the experiment on Mus musculus [6]; at Estrogen receptor beta [7]) was inactive. Further, the “inhibition (INH)” value in the experiment with Mus musculus [3] is reported as 50%. The Ki at Estrogen receptor beta [5] was over 10 µM.

Turning to `CC(=O)c1ccc2c(c1)[C@@H]1C=CC[C@@H]1[C@H](c1cc3c(cc1Br)OCO3)N2`, the outcome in the experiment with Mus musculus [8] was inactive.

The record behind these values is ChEMBL document CHEMBL1212719, “In vivo effects of a GPR30 antagonist” (Nat Chem Biol, 2009).
